We go through one molecule from PMC7044277 (Nature Communications, 2020).

Where “and” joins values, the source holds several entries; their conditions need not be identical. Equal entries are not always repeated.

Common to all, as to format: cell-based
Experiment [1] deals with T1, 320 non-olfactory GPCRs (Homo sapiens, UniProt P23945).
T1 construct: expressed in transfected cells; host or cells: HTLA cells

The target of experiment [2] is T2, 320 non-olfactory GPCRs (Homo sapiens, UniProt P32249).
T2 construct: expressed in transfected cells; host or cells: HTLA cells
T2 sequence (P32249 whole entry): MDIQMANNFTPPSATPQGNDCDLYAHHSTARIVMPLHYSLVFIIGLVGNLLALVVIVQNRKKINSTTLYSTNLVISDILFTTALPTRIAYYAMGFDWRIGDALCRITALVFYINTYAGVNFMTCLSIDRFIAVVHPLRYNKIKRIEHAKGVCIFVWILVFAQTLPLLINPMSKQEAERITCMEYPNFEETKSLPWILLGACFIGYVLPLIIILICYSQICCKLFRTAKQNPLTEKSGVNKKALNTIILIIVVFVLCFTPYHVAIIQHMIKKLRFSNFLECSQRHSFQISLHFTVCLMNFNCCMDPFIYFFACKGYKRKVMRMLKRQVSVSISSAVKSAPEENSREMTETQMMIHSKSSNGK

Experiment [3] has as its target T3, 320 non-olfactory GPCRs (Homo sapiens, UniProt Q96P68).
T3 construct: expressed in transfected cells; host or cells: HTLA cells
The following applies: receptor OXGR1; replicate values, Fig_4g.

The target of experiment [4] is T4, 320 non-olfactory GPCRs (Homo sapiens, UniProt Q9GZQ6).
T4 construct: expressed in transfected cells; host or cells: HTLA cells
T4 sequence (Q9GZQ6 whole entry): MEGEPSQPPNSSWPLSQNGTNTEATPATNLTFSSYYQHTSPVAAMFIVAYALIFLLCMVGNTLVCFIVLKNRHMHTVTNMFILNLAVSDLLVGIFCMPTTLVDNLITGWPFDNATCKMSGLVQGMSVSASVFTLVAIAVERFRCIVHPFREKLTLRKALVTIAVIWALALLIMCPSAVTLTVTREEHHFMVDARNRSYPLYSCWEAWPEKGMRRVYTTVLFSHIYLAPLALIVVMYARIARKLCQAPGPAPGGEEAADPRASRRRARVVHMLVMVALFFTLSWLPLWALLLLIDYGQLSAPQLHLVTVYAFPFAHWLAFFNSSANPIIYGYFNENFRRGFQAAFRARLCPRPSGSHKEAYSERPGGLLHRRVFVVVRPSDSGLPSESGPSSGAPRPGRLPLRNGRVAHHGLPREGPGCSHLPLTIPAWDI
The following applies: receptor NPFF1; replicate values, Fig_4g.
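Wherever Fold of Basal is given: compound tested at 1 µM final concentration.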
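Wherever GPCRome agonism screen response is given: fold over basal response of each receptor without drug.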

T1 sequence (P23945 18-695): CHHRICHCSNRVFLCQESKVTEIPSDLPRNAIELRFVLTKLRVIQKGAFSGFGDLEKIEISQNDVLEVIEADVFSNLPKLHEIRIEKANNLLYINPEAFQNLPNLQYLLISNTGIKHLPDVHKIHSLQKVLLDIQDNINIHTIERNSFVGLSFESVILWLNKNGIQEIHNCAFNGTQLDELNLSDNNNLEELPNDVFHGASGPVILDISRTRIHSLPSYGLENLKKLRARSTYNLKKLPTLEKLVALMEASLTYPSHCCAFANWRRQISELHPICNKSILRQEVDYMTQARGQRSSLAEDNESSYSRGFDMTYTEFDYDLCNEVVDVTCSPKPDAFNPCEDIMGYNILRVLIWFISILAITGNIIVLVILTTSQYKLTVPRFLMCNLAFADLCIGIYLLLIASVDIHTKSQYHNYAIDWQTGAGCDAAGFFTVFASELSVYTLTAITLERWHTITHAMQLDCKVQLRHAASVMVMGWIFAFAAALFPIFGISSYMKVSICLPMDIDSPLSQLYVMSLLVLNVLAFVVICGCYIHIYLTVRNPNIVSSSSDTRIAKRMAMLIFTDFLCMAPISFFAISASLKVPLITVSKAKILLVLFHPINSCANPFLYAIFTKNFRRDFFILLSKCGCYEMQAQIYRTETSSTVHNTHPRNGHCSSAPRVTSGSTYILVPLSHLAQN

In the case of `CCOc1cccc2cc(C(C)NCC3(O)CCCCC3)oc12` (stereo not shown) [O4LE6], the “Fold of Basal” value is 0.5729 and 0.6139 and 0.617 and 0.5943 at 320 non-olfactory GPCRs [1]; 2.191 and 1.736 and 1.097 and 1.536 on 320 non-olfactory GPCRs [2]. In addition, the “GPCRome agonism screen response” value on 320 non-olfactory GPCRs [3] is 1.363 and 1.785 and 0.5079 and 1.083; at 320 non-olfactory GPCRs [4] it was 1.802 and 0.79 and 0.7669 and 0.6228.
